Measured values published in publication PMC9098178, “SAR of Novel 3-Arylisoquinolinones: meta-Substitution on the Aryl Ring Dramatically Enhances Antiproliferative Activity through Binding to Microtubules” (Journal of Medicinal Chemistry, 2022).

What was measured:
HUVECs = test: Cytoskeleton immunofluorescence; assay type: cell-based, human; details: 0.5, 1 μM, 24 h
Text: The disruption was characterized by shortened microtubules with outer blebbing filled with tubulin and thicker and brighter actin fibers (stress fibers). Many rounded and retracted cells were also observed in HUVECs treated with 4. […] Taken together, 4 induced morphological alterations in endothelial cells are possibly the reason behind the disruption of the preexisting tubes of HUVECs cultured on Matrigel. […] Throughout the next steps, all of the reagents were removed by washing, flicking, and gently dabbing the slide against a tissue paper. The cells were then washed with PBS containing calcium and magnesium (Sigma, Cat# D1283), fixed with 10% formalin solution (Sigma, Cat# HT5014) for 15 min, and permeabilized with 0.2% (v/v) Triton X-100 for 5 min. Next, the cells were exposed to 1 h incubation with blocking buffer made of 10% (v/v) normal goat serum (Vector Laboratories, Cat# S-1000), 1% (w/v) bovine serum albumin (Sigma, Cat# A9418), and 0.3 M glycine in PBS-T (0.05% Tween-20 in PBS). The cells were then incubated with rabbit α-tubulin primary antibody (1:1000 in the blocking buffer, Abcam, Cat# ab52866) for 2 h at RT after three times washing with PBS-T, each for 5 min. […] Finally, the cytoskeleton was visualized at 63x, oil-based magnification using fluorescence, inverted microscope (Leica DMI6000B, Leica Microsystems). […]

HCT116 = test: SRB antiproliferative assay, HCT116; assay type: cell-based, human; details: Homo sapiens, HCT-116, 96 h treatment, mean ± SEM, read-out: IC50 HCT116
Description: In light of this substantial change in activity between the meta and para compounds, a more comprehensive analysis of the antiproliferative activity was performed for the meta-/para-3-arylisoquinolinone pairs 2 and 3, 4, and 5, as well as 6. A panel of breast (MDA-MB-231), liver (HepG2, SNU423), lung (A549), and colon (HCT116) cancer cell lines were treated with the five 3-arylisoquinolinone analogs for 96 h followed by the SRB assay. The dose–response curves (including those for MCF-7) are presented in Figure S22, and their relevant IC50 values are listed in Table 1. […] The differential activity between meta- and para-3-arylisoquinolinones was reproduced in the National Cancer Institute (NCI) one-dose screen using a panel of 59 cancer cell lines (Figure S23).
All cell lines used in the study were human-derived and purchased from ATCC (Manassas, USA). Breast adenocarcinoma MCF-7 and MDA-MB-231 cell lines were cultured in DMEM. Hepatocellular carcinoma HepG2 and SNU423 cell lines were grown in MEME combined with 1% (v/v) nonessential amino acids and RPMI supplemented with 2 mM glutamine, respectively. Lung adenocarcinoma A549 and colorectal carcinoma HCT116 cells were grown in RPMI (+2 mM glutamine). All previous media were further supplemented with 10% heat-inactivated fetal bovine serum. The immortalized, normal liver THLE-3 cells were grown in BEGM (Lonza, Cat# CC-3170) onto precoated vessels according to ATCC’s instructions. Human umbilical vein endothelial cells (HUVECs) were cultured in EGM-2 (Lonza, Cat# CC-3162). All of the cells were maintained at 37 °C and 5% CO2 in a humidified incubator.
Screening of the antiproliferative activity of 3-arylisoquinolinones was performed using the SRB assay as previously described.[56] Exponentially growing HepG2, SNU423, MDA-MB-231, MCF-7, A549, HCT116, THLE-3, and HUVECs were seeded in 96-well plates at densities of 3000, 2000, 1500, 2500, 1000, 1000, 4000, and 4000 cells/well, respectively. These densities were experimentally selected so that the DMSO-treated cells (control) were approximately 80–90% confluent at the assay’s endpoint, and their optical density (OD) values fell within the assay’s linear range. After overnight incubation, the cells were treated with a range of concentrations of the respective compounds for 96 h, 24 h followed by 72 h compound-free incubation or 24 h (for HUVECs only). After treatment, cell monolayers were fixed with 10% (w/v) trichloroacetic acid for 1 h at 4 °C, washed, and dried. Then, the cells were exposed to 0.4% (w/v) SRB dye (prepared in 1% (v/v) acetic acid; Botium, Cat# 80100) for 15 min followed by several 1% acetic acid washing and then drying. Finally, the cellular protein-bound SRB was thoroughly dissolved in 10 mM Tris base, and the OD values were read at 510 nm using a plate reader (μQuant Microplate Spectrophotometer, Biotek, U.K.) coupled with Gen5 software (BioTek, U.K.). Compound-induced changes in cell growth were inferred from changes in OD values. Cell growth was calculated using the following formula: cell growth (%) = (ODtest/ODcontrol) × 100.

| SMILES | effect on cytoskeleton network (actin and microtubules) (HUVECs) | IC50 (HCT116) [µM] |
| --- | --- | --- |
| O=c1[nH]c(-c2cccc(F)c2)cc2cc(F)ccc12 [compound 4, 6-Fluoro-3-(3-fluorophenyl)isoquinolin-1(2H)-one] | marked disruption in the cytoskeleton network | – |
| O=c1[nH]c(-c2ccc(F)cc2)cc2cc(F)ccc12 [compound 5, 6-Fluoro-3-(4-fluorophenyl)isoquinolin-1(2H)-one] | – | > 50 |
